Assay [1] has as its target HCV NS3/4A protease genotype 1b (Hepatitis C virus genotype 1b, UniProt P26663). Nature of the assay: HCV NS3/4A protease time-resolved fluorescence (TRF) assay, Ki against genotype 1b. It is filed as biochemical. The following applies: IC50 [gt-1b] (nM), NS3/4A genotype 1b, enzyme 0.2 nM. A digest of the protocol: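 Enzyme 0.2 nM 1b / 0.4 nM A156T / 0.025 nM 3a; 30 min preinc. w/ cpd; 25 nM TRF peptide; 2.5 h RT; ex 340/em 615 time-delayed; 4-param IC50 → Ki = IC50/(1+[S]/KM).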

For assay [2], the system named is HCV genotype 1b replicon. Nature of the assay: HCV replicon assay, genotype 1b replicon EC50. It is filed as cell-based, Hepatitis C virus. The note with it: Hepatitis C virus, genotype 1b replicon, read-out: EC50 [gt-1b]. On the procedure:
Measuring Compound Inhibitory Potency (Genotype 1b Replicon EC50 (nM))
Measurement of inhibition by compounds was performed using the HCV replicon system. Several different replicons encoding different HCV genotypes or mutations were used. In addition, potency measurements were made using different formats of the replicon assay, including different ways of measurements and different plating formats. See Jan M. Vrolijk et al., A replicons-based bioassay for the measurement of interferons in patients with chronic hepatitis C, 110 J. VIROLOGICAL METHODS 201 (2003); Steven S. Carroll et al., Inhibition of Hepatitis C Virus RNA Replication by 2′-Modified Nucleoside Analogs, 278(14) J. BIOLOGICAL CHEMISTRY 11979 (2003). However, the underlying principles are common to all of these determinations, and are outlined below.
Stable neomycin phosphotransferase encoding replicon-harboring cell lines were used, so all cell lines were maintained under G418 selection prior to the assay. In some cases the cell lines encoded a luciferase:Neo^r fusion and could be assayed either directly by determination of RNA copy number, or indirectly through measurement of the luciferase activity.
To initiate an assay, replicon cells were plated in the presence of a dilution series of test compound in the absence of G418. Typically, the assays were performed in a 96-well plate format for manual operation, or a 384 well plate in an automated assay. Replicon cells and compound were incubated for 24-48 hours, depending on the assay. At the end of the assay, cells are washed free of media and compound and then lysed. For direct quantitation, RNA levels were measured by ^32P-probe hybridization and protection, or in a TAQMAN based assay and normalized to cellular cyclophilin A RNA levels. In some cases, luciferase activity was measured using a conventional luciferase assay. In all cases EC50 determinations were calculated as a percent of a DMSO control by fitting the data to a four parameter fit function.
In general terms: A replicon is a self-replicating genome or part of one, used to study replication in cells.

Like-named read-outs stand apart in the source and are kept apart here.

What is called IC50 is the concentration needed to halve the response being measured. For orientation: EC50 means the concentration needed to bring the measured effect to its halfway point.

In assay [1], `COc1ccc2nc(C(C)C)c3c(c2c1)C(F)(F)C[C@]1(C[C@H]2C(=O)N[C@]4(C(=O)NS(=O)(=O)C5(C)CC5)C[C@H]4/C=C\CCCCC[C@H](NC(=O)OC(C)(C)C)C(=O)N2C1)O3` [Example 3, tert-Butyl (2S,6S,13aS,14aR,16aS,Z)-1′,1′-difluoro-5′-isopropyl-9′-methoxy-14a-(1-methylcyclopropylsulfonylcarbamoyl)-5,16-dioxo-1′,2′,3,5,6,7,8,9,10,11,13a,14,14a, 15,16,16a-hexadecahydro-1H-spiro[cyclopropa[e]pyrrolo[1,2-a][1,4]diazacyclopentadecine-2,3′-pyrano[2,3-c]quinoline]-6-ylcarbamate] registered an IC50 of 0.004 nM. Moreover, in assay [2], the EC50 came out at 2.9 nM.
For `CC(C)(C)OC(=O)N[C@H]1CCCCC/C=C\[C@@H]2C[C@@]2(C(=O)NS(=O)(=O)C2(C)CC2)NC(=O)[C@@H]2C[C@]3(CCc4c(c(C(F)(F)F)nc5ccccc45)O3)CN2C1=O` [Example 4, tert-Butyl (2R,6S,13aS,14aR,16aS,Z)-14a-(1-methylcyclopropylsulfonylcarbamoyl)-5,16-dioxo-5′-(trifluoromethyl)-1′,2′,3,5,6,7,8,9,10,11,13a,14,14a,15,16,16a-hexadecahydro-1H-spiro[cyclopropa[e]pyrrolo[1,2-a][1,4]diazacyclopentadecine-2,3′-pyrano[2,3-c]quinoline]-6-ylcarbamate], in that order: 0.009 nM and 0.813 nM.
For `COc1ccc2nc(C(F)(F)F)c3c(c2c1)CC[C@]1(C[C@H]2C(=O)N[C@]4(C(=O)NS(=O)(=O)C5(C)CC5)C[C@H]4/C=C\CCCCC[C@H](NC(=O)OC(C)(C)C)C(=O)N2C1)O3` [Example 5, tert-Butyl (2R,6S,13aS,14aR,16aS,Z)-9′-methoxy-14a-(1-methylcyclopropylsulfonylcarbamoyl)-5,16-dioxo-5′-(trifluoromethyl)-1′,2′,3,5,6,7,8,9,10,11,13a,14,14a,15,16, 16a-hexadecahydro-1H-spiro[cyclopropa[e]pyrrolo[1,2-a][1,4]diazacyclopentadecine-2,3′-pyrano[2,3-c]quinoline]-6-ylcarbamate], in that order: 0.015 nM and 1.36 nM.
For `CC(C)(C)OC(=O)N[C@H]1CCCCC/C=C\[C@@H]2C[C@@]2(C(=O)NS(=O)(=O)C2(C)CC2)NC(=O)[C@@H]2C[C@]3(CCc4c(c(C(F)(F)F)nc5ccc(OCCN6CCOCC6)cc45)O3)CN2C1=O` [Example 7, tert-Butyl ((2R,6S,13aS,14aR,16aS,Z)-14a-(((1-methylcyclopropyl)sulfonyl)carbamoyl)-9′-(2-morpholinoethoxy)-5,16-dioxo-5′-(trifluoromethyl)-1′,2′,3,5,6,7,8,9,10, 11,13a,14,14a,15,16,16a-hexadecahydro-1H-spiro[cyclopropa[e]pyrrolo[1,2-a][1,4]diazacyclopentadecine-2,3′-pyrano[2,3-c]quinolin]-6-yl)carbamate], in that order: 0.02 nM and 0.433 nM.
As for `COc1ccc2nc(C(F)F)c3c(c2c1)CC[C@]1(C[C@H]2C(=O)N[C@]4(C(=O)NS(=O)(=O)C5(C)CC5)C[C@H]4/C=C\CCCCC[C@H](NC(=O)OC(C)(C)C)C(=O)N2C1)O3` [Example 10, tert-butyl ((2R,6S,13aS,14aR,16aS,Z)-5′-(difluoromethyl)-9′-methoxy-14a-(((1-methylcyclopropyl)sulfonyl)carbamoyl)-5,16-dioxo-1′,2′,3,5,6,7,8,9,10,11,13a,14,14a,15, 16,16a-hexadecahydro-1H-spiro[cyclopropa[e]pyrrolo[1,2-a][1,4]diazacyclopentadecine-2,3′-pyrano[2,3-c]quinolin]-6-yl)carbamate], the IC50 in assay [1] (K+ salt) came out at 0.013 nM. For the same compound, the EC50 in assay [2] (K+ salt) is 1.11 nM.

These data come from patent US8987195B2 (priority 2012, dated 2015).
